Test results reported in US9914712B2, “Antibacterial thiazolecarboxylic acids” (priority 2013, dated 2018).

Legend:
NDM-1 = molecular target: T1, NDM-1 (Klebsiella pneumoniae, UniProt C7C422); assay: In vitro MBL inhibition assay, imipenem hydrolysis (NDM-1); format: biochemical; conditions: Ki NDM-1, imipenem substrate, Ki from IC50 by Cheng-Prusoff, Km 70 μM
T1 construct: made in house
Protocol: NDM-1 is produced and purified as disclosed in Yong et al, Antimicrobial Agents & Chemotherapy, (2009) 53(12), 5046-54.
(§1) Reaction buffers were prepared in a UV-transparent 96-well microplate, which buffer contains 10 mM HEPES pH 7.5, 50 μM ZnSO4, 20 μg/mL BSA. An amount of 75 ng of protein was added to each well.
(§2) Spectrophometric assays are performed to determine NDM-1/VIM-2/IMP-1 carbapenemase activity using purified proteins (50 ng for NDM-1/VIM-2, 25 ng IMP-1) from NDM-1/VIM-2/IMP-1 expressing bacteria using […] of imipenem as substrate in 10 mM HEPES pH 7.5, 50 μM ZnSO4. MBL hydrolysis is measured at 299 nm for 10 minutes at 30° C. as the absorbance changes due to the opening of beta-lactam ring of the antibiotic.
(§3) The Ki values obtained for selected example compounds are shown in Table 3, where they are compared with the values for pyridine-2-carboxylic acid.

VIM-2 = molecular target: T2, VIM-2 (Escherichia coli, UniProt Q5U7L7); assay: In vitro MBL inhibition assay, imipenem hydrolysis (VIM-2); format: biochemical; conditions: Ki VIM-2, imipenem substrate, Ki from IC50 by Cheng-Prusoff, Km 9 μM
T2 construct: made in house
Protocol: The MBL enzyme VIM-2 is produced and purified as disclosed in Borgianni et al, Antimicrobial Agents & Chemotherapy, (2010), 54(8), 3197-3204.
as §1, §2, §3

IMP-1 = molecular target: T3, IMP-1 (Serratia marcescens, UniProt P52699); assay: In vitro MBL inhibition assay, imipenem hydrolysis (IMP-1); format: biochemical; conditions: Ki IMP-1, imipenem substrate, Ki from IC50 by Cheng-Prusoff, Km 25 μM
T3 construct: made in house
T3 sequence (P52699 19-246, species assumed): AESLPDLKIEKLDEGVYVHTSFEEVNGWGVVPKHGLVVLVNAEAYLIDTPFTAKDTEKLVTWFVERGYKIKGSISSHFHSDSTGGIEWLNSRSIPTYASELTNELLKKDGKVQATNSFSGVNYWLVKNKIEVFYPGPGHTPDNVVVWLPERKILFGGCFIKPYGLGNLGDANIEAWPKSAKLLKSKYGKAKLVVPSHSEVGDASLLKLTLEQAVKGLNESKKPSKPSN
Protocol: The MBL enzyme IMP-1 is produced and purified as disclosed in Laraki et al, Antimicrobial Agents & Chemotherapy, (1999), 43(4), 902-906.
as §1, §2, §3

[1] = test system: NTBC023 strain: Klebsiella pneumoniae producing VIM-1+SHV-5; assay: MIC of meropenem in presence of the inhibitor, broth microdilution; format: cell-based; conditions: compound at 100 μM, 37° C., 18-20 h
Protocol: (§4) The minimal inhibitory concentration (MIC) of meropenem in presence of the inhibitor is routinely assessed against 3 representative clinical strains: • NTBC020 Strain: Escherichia coli producing NDM-1+TEM-1+CTX-M-15, (isolated in Australia in 2009); • NTBC023 strain: Klebsiella pneumoniae producing VIM-1+SHV-5, (isolated in France in 2002); • NTBC062 strain: Klebsiella pneumoniae producing IMP-1+TEM-1, (isolated in France in 2012);
(§5) The assay was performed according to the standard broth microdilution method described by the Clinical and Laboratory Standards Institute (CLSI-M7-A7—Methods for dilution antimicrobial susceptibility tests for bacteria that grow aerobically; Approved standard; CLSI, Wayne, Pa., USA. 2006). This method involves the use of small volumes of broth dispensed in sterile, plastic 96-wells microdilution plates. The compounds were tested at a concentration of 100 μM and controls included the susceptibility tests for the three selected strains without the compounds and for the two reference strains E. coli ATCC 25922 and Pseudomonas aeruginosa ATCC 27853 as Quality Controls.
(§6) From a stock solution at 20 mM in DMSO, compounds were prepared by diluting 0.04 mL of the compound solution in 0.04 mL of Mueller-Hinton (MH) broth (2-fold dilution). Then, 0.001 mL of the compound dilution was distributed in the 96-wells microdilution plates to give a final concentration of 100 μM for a final volume of 0.1 mL by well.
(§7) From a meropenem stock solution at 10 mg/ml in water, meropenem 2-fold serial dilutions were prepared in MH broth at twice the desired final concentrations, e.g from 512 to 0.0037 μg/ml. The 96-wells microdilution plates were then filled with 0.05 mL of the meropenem dilutions. For each susceptibility test, two wells were left free of antibiotic and filled with 0.05 mL of sterile MH broth to serve as growth controls.
(§8) The bacterial inoculum was prepared by direct colony suspension from a 24 h-agar plate in saline solution (NaCl 9 g/L). The suspension was adjusted to a 0.5 MacFarland turbidity standard (1-2×10^8 CFU/mL) and then diluted 1:100 in MH broth. 0.05 mL of the bacterial dilution was then inoculated to each well giving a final volume of 0.1 mL and a final bacterial concentration of approximately 5×10^5 CFU/mL.
(§9) Microdilution plates were incubated at 37° C. in an ambient air incubator for 18-20 h.

[2] = test system: NTBC020 Strain: Escherichia coli producing NDM-1+TEM-1+CTX-M-15; assay: as above; format: cell-based; conditions: compound at 100 μM, 37° C., 18-20 h
Protocol: as §4, §5, §6, §7, §8, §9

NTBC039 = assay: as above; format: cell-based; conditions: compound at 100 μM, 37° C., 18-20 h

T1 sequence (C7C422 29-270 limits assumed): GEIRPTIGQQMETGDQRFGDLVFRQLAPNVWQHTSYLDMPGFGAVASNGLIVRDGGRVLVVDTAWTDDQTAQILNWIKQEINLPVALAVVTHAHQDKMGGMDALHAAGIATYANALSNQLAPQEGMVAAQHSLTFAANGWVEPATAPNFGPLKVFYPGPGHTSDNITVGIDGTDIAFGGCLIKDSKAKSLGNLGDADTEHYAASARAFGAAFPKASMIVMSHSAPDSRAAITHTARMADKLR

SMILES	Ki (NDM-1)	Ki (VIM-2)	Ki (IMP-1)	MIC of meropenem, strain NTBC023 [1]	MIC of meropenem, strain NTBC020 [2]	MIC of meropenem, strain NTBC039 (NTBC039)
O=C(O)c1ncsc1NS(=O)(=O)Cc1ccccc1 [Compound 5, 5-(phenylmethylsulfonamido)thiazole-4-carboxylic acid]	2.5 µM	0.21 µM	0.05 µM	–	–	–
O=C(O)c1ncsc1NS(=O)(=O)CCc1ccccc1 [Compound 7, 5-(2-phenylethylsulfonamido)thiazole-4-carboxylic acid]	0.75 µM	0.08 µM	0.03 µM	–	–	–
O=C(O)c1ncsc1NS(=O)(=O)c1ccc(-c2ccccc2)s1 [Compound 20, 5-(5-phenylthiophene-2-sulfonamido)thiazole-4-carboxylic acid]	0.94 µM	0.48 µM	0.1 µM	–	–	–
O=C(O)c1ncsc1NS(=O)(=O)Cc1cccc(Cl)c1Cl [Compound 48, 5-{[(2,3-dichlorophenyl)methyl]sulfonamido}-1,3-thiazole-4-carboxylic acid]	–	–	–	2 µg/mL	4 µg/mL	0.25 µg/mL
Cc1nc(C(=O)O)c(NS(=O)(=O)Cc2ccccc2)s1 [Compound 50, 5-benzylsulfonamido-2-methyl-1,3-thiazole-4-carboxylic acid]	1.7 µM	0.26 µM	0.06 µM	–	–	–
O=C(O)c1nc(-c2ccccc2)sc1NS(=O)(=O)c1ccccc1 [Compound 58, 5-benzenesulfonamido-2-phenyl-1,3-thiazole-4-carboxylic acid]	2.3 µM	0.8 µM	0.07 µM	–	–	–
CC(c1ccccc1)S(=O)(=O)Nc1scnc1C(=O)O (stereo not drawn) [Compound 60, 5-[(1-phenylethyl)sulfonamido]-1,3-thiazole-4-carboxylic acid]	0.8 µM	0.1 µM	0.07 µM	–	–	–
O=C(O)c1ncsc1NS(=O)(=O)CCN1C(=O)c2ccccc2C1=O [Compound 63, 5-{[2-(1,3-dioxo-2,3-dihydro-1H-isoindol-2-yl)ethyl]sulfonamido}-1,3-thiazole-4-carboxylic acid]	0.6 µM	0.13 µM	1.7 µM	–	–	–
O=C(O)c1ncsc1NS(=O)(=O)c1ccccc1Cl [Compound 66, 5-[(2-chlorophenyl)sulfonamido]-1,3-thiazole-4-carboxylic acid]	–	–	–	8 µg/mL	16 µg/mL	8 µg/mL
O=C(O)c1ncsc1NS(=O)(=O)c1cccnc1 [Compound 67, 5-(pyridine-3-sulfonamido)-1,3-thiazole-4-carboxylic acid]	–	–	–	16 µg/mL	1 µg/mL	8 µg/mL
O=C(O)c1ncsc1NS(=O)(=O)CC1CCCCC1 [Compound 69, 5-(cyclohexylmethyl)sulfonamido-1,3-thiazole-4-carboxylic acid]	–	–	–	4 µg/mL	16 µg/mL	1 µg/mL
O=C(O)c1ncsc1NS(=O)(=O)N1CCCCC1 [Compound 75, 5-[(piperidine-1-sulfonyl)amino]-1,3-thiazole-4-carboxylic acid]	2.1 µM	0.34 µM	0.94 µM	–	–	–
CN(Cc1ccccc1)S(=O)(=O)Nc1scnc1C(=O)O [Compound 77, 5-{[benzyl(methyl)sulfamoyl]amino}-1,3-thiazole-4-carboxylic acid]	1.3 µM	0.03 µM	0.12 µM	–	–	–
CC(=O)Nc1ccc(S(=O)(=O)Nc2scnc2C(=O)O)cc1 [Compound 78, 5-[(4-acetamidophenyl)sulfonamido]-1,3-thiazole-4-carboxylic acid]	0.16 µM	0.4 µM	0.05 µM	–	–	–
Cc1c(S(=O)(=O)Nc2scnc2C(=O)O)cnn1-c1ccccc1 [Compound 81, 5-[(5-methyl-1-phenyl-1H-pyrazol-4-yl)sulfonamido]-1,3-thiazole-4-carboxylic acid]	0.13 µM	0.03 µM	0.41 µM	–	–	–
CN(c1ccccc1)S(=O)(=O)Nc1scnc1C(=O)O [Compound 88, 5-{[methyl(phenyl)sulfamoyl]amino}-1,3-thiazole-4-carboxylic acid]	1 µM	0.16 µM	0.58 µM	–	–	–
O=C(O)c1ncsc1NS(=O)(=O)c1ccc(-n2cccn2)cc1 [Compound 94, 5-{[4-(1H-pyrazol-1-yl)phenyl]sulfonamido}-1,3-thiazole-4-carboxylic acid]	–	–	–	8 µg/mL	16 µg/mL	4 µg/mL
O=C(O)c1nc(C(F)(F)F)sc1NS(=O)(=O)Cc1ccccc1Cl [Compound 96, 5-{[(2-chlorophenyl)methyl]sulfonamido}-2-(trifluoromethyl)-1,3-thiazole-4-carboxylic acid]	2.7 µM	0.35 µM	1.2 µM	–	–	–
O=C(O)c1ncsc1NS(=O)(=O)CCCc1ccccc1 [Compound 101, 5-[(3-phenylpropyl)sulfonamido]-1,3-thiazole-4-carboxylic acid]	–	–	–	8 µg/mL	32 µg/mL	1 µg/mL
O=C(O)c1ncsc1NS(=O)(=O)C1CCc2ccccc21 (stereo not drawn) [Compound 104, 5-(2,3-dihydro-1H-indene-1-sulfonamido)-1,3-thiazole-4-carboxylic acid]	–	–	–	4 µg/mL	16 µg/mL	2 µg/mL
O=C(O)c1ncsc1NS(=O)(=O)c1ccc(C2CCNCC2)cc1 [Compound 118, 5-{[4-(piperidin-4-yl)phenyl]sulfonamido}-1,3-thiazole-4-carboxylic acid]	–	–	–	8 µg/mL	4 µg/mL	4 µg/mL
O=C(O)c1ncsc1NS(=O)(=O)Cc1cccc(F)c1F [Compound 124, 5-{[(2,3-difluorophenyl)methyl]sulfonamido}-1,3-thiazole-4-carboxylic acid]	–	–	–	4 µg/mL	4 µg/mL	0.25 µg/mL
O=C(O)c1ncsc1NS(=O)(=O)Cc1cc2c(cc1Cl)OCO2 [Compound 144, 5-[(6-chloro-2H-1,3-benzodioxol-5-yl)methylsulfonamido]-1,3-thiazole-4-carboxylic acid]	–	–	–	8 µg/mL	16 µg/mL	1 µg/mL
O=C(O)c1ncsc1NS(=O)(=O)N1CCc2ccccc21 [Compound 147, 5-[(2,3-dihydroindole-1-sulfonyl)amino]-1,3-thiazole-4-carboxylic acid]	–	–	–	16 µg/mL	8 µg/mL	4 µg/mL
O=C(O)c1ncsc1NS(=O)(=O)CCc1cccnc1 [Compound 151, 5-[2-(pyridin-3-yl)ethylsulfonamido]-1,3-thiazole-4-carboxylic acid]	3.2 µM	0.1 µM	1.8 µM	–	–	–
O=C(O)c1ccccn1 [Pyridine-2-carboxylic acid, pyridine-2-carboxylic acid, reference compound]	3 µM	1 µM	300 µM	–	–	–
